Test results as given in publication PMC5951806, “Rapid labelling and covalent inhibition of intracellular native proteins using ligand-directed N-acyl-N-alkyl sulfonamide” (Nature Communications, 2018).

Legend:
Assay in all cases: TMT LC-MSMS of 11-labelled proteins
Format in all cases: cell-based
[1] = biological target: T1, Monocarboxylate transporter 4 (SLC16A3) (Homo sapiens, UniProt O15427)
T1 sequence (O15427 1-465): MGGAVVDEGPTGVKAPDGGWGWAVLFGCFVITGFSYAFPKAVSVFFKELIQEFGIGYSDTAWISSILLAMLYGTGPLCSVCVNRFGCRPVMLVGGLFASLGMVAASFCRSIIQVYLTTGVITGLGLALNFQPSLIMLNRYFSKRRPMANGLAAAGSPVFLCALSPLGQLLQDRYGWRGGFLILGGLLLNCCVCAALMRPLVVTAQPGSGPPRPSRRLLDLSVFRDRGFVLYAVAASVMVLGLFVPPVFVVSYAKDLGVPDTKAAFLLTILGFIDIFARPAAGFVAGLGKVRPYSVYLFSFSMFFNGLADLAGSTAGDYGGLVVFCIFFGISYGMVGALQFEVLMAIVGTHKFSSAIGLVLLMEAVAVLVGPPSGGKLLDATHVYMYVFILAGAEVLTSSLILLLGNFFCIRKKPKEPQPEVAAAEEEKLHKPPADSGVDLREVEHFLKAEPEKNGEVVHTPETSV
Description: (§1) Supplement 41467_2018_4343_MOESM4_ESM.xlsx, sheet "Exp2" | column: Abundance Ratio: (11) / (11 with PU-H71); Abundance Ratio: (11) / (DMSO); Abundances (Grouped): 11; Abundances (Grouped): 11 with PU-H71

[2] = biological target: Hemoglobin subunit alpha (HBA2; HBA1) (Homo sapiens, UniProt P69905)
Chain of Hemoglobin subunit alpha (HBA2; HBA1) (P69905 2-142 limits assumed): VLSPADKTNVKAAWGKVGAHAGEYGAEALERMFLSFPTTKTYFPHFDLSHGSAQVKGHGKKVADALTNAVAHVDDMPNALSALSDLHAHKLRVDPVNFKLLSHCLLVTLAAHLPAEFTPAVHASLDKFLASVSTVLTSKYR
Description: as §1

[3] = biological target: Dolichyl-diphosphooligosaccharide--protein glycosyltransferase 48 kDa subunit (DDOST) (Homo sapiens, UniProt P39656)
Chain of Dolichyl-diphosphooligosaccharide--protein glycosyltransferase 48 kDa subunit (DDOST) (P39656 43-456): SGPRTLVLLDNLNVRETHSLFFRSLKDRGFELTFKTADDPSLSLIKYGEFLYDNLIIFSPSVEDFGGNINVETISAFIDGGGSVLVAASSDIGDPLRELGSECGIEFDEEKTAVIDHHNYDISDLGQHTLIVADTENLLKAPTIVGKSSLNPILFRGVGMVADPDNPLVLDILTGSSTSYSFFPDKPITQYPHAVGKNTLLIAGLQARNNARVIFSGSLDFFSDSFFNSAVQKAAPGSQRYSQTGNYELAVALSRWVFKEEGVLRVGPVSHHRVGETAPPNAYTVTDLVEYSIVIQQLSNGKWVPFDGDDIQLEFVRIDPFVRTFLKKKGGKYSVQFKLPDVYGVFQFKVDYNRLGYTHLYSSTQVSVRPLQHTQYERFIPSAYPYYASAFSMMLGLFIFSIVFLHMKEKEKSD
Chain of Dolichyl-diphosphooligosaccharide--protein glycosyltransferase 48 kDa subunit (DDOST) (P04843 24-607 partner): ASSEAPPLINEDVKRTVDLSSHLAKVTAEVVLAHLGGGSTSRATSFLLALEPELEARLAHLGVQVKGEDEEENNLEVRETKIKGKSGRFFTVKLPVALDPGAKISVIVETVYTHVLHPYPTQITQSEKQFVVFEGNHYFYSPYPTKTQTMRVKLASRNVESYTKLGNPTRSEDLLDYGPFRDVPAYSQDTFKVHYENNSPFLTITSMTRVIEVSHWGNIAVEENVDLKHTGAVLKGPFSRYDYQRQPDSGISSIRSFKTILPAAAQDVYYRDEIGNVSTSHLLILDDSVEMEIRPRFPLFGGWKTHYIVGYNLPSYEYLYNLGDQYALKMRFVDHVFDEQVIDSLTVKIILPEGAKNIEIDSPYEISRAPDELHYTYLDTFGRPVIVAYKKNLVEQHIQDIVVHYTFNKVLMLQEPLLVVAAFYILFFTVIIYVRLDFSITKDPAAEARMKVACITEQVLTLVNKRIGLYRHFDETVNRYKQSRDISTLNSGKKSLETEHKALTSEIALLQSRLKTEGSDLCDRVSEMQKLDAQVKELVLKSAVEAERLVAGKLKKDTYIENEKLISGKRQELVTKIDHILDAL
Chain of Dolichyl-diphosphooligosaccharide--protein glycosyltransferase 48 kDa subunit (DDOST) (P04844 23-631 partner): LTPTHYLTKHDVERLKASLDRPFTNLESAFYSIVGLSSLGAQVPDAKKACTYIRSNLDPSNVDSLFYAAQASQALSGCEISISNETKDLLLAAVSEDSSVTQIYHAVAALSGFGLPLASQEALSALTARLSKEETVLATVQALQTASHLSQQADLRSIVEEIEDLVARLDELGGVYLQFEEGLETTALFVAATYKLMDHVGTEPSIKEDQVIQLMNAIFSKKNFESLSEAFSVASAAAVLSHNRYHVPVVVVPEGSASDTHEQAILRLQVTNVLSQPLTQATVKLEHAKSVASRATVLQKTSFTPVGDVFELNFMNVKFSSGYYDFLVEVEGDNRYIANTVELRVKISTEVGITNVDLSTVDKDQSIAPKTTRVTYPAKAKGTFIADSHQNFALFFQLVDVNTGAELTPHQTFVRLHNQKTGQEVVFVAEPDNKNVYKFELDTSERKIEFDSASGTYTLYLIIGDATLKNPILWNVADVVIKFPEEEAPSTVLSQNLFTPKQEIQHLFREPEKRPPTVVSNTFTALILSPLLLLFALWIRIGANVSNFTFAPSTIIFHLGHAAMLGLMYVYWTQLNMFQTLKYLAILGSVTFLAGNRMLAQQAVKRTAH
Chain of Dolichyl-diphosphooligosaccharide--protein glycosyltransferase 48 kDa subunit (DDOST) (P61803 whole entry partner): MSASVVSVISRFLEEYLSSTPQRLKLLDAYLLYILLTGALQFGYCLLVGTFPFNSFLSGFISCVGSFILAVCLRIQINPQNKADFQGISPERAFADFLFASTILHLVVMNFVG
Chain of Dolichyl-diphosphooligosaccharide--protein glycosyltransferase 48 kDa subunit (DDOST) (P61165 whole entry partner): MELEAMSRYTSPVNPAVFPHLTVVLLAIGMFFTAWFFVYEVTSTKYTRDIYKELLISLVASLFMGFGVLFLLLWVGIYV
Chain of Dolichyl-diphosphooligosaccharide--protein glycosyltransferase 48 kDa subunit (DDOST) (P0C6T2 whole entry partner): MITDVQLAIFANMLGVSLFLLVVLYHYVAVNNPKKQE
Description: as §1

[4] = biological target: Isoform 2 of Glucose-6-phosphate isomerase (GPI) (Homo sapiens, UniProt P06744)
Description: as §1

protein MAL2 (MAL2) = protein MAL2 (MAL2) (Homo sapiens, UniProt Q969L2)
Chain of protein MAL2 (MAL2) (Q969L2 whole entry): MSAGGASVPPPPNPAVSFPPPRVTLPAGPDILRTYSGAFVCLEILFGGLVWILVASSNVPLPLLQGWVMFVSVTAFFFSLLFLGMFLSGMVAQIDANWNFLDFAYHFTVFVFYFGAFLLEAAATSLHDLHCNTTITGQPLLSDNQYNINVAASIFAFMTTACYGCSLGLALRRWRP
Description: as §1

Alpha-actinin-4 (ACTN4) = Alpha-actinin-4 (ACTN4) (Homo sapiens, UniProt O43707)
Chain of Alpha-actinin-4 (ACTN4) (O43707 whole entry): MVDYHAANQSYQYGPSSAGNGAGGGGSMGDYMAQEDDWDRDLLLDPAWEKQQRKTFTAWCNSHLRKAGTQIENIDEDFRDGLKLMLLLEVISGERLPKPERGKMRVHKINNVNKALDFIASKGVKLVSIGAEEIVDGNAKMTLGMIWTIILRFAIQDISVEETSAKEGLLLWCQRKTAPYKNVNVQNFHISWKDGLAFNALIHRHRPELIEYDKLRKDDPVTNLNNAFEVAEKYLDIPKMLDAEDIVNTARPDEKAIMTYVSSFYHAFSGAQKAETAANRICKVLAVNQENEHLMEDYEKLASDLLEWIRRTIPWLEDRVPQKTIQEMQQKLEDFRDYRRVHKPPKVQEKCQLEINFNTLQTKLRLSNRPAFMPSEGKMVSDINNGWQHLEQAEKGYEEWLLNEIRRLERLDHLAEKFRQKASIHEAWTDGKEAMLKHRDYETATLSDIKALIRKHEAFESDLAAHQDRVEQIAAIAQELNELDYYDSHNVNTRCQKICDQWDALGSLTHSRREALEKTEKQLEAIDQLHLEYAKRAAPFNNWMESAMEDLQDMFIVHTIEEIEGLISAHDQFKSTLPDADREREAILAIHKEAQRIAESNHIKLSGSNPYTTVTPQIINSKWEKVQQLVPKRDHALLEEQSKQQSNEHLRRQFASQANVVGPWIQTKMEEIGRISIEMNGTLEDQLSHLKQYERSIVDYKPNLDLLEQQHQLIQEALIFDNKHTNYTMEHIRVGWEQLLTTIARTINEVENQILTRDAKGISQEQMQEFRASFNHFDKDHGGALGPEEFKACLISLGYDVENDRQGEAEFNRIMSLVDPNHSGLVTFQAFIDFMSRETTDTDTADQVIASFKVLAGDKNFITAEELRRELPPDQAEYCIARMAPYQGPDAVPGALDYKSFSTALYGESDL
Description: as §1

[5] = biological target: T2, Phosphate carrier protein, mitochondrial (SLC25A3) (Homo sapiens, UniProt Q00325)
T2 sequence (Q00325 50-362): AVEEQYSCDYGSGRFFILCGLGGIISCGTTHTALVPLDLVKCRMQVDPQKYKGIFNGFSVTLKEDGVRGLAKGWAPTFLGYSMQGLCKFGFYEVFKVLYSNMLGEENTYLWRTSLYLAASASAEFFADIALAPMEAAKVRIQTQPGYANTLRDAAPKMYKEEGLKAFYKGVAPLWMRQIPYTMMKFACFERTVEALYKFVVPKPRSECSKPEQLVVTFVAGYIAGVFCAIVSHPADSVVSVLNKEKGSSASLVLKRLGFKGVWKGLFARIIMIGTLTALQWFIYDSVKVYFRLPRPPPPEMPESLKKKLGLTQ
Description: as §1

[6] = biological target: T3, Isoform 3 of Hexokinase-1 (HK1) (Homo sapiens, UniProt P19367); as to Abundance Ratio: (11) / (DMSO): test concentration or dose not given here
T3 sequence (P19367 1-921 isoform P19367-3): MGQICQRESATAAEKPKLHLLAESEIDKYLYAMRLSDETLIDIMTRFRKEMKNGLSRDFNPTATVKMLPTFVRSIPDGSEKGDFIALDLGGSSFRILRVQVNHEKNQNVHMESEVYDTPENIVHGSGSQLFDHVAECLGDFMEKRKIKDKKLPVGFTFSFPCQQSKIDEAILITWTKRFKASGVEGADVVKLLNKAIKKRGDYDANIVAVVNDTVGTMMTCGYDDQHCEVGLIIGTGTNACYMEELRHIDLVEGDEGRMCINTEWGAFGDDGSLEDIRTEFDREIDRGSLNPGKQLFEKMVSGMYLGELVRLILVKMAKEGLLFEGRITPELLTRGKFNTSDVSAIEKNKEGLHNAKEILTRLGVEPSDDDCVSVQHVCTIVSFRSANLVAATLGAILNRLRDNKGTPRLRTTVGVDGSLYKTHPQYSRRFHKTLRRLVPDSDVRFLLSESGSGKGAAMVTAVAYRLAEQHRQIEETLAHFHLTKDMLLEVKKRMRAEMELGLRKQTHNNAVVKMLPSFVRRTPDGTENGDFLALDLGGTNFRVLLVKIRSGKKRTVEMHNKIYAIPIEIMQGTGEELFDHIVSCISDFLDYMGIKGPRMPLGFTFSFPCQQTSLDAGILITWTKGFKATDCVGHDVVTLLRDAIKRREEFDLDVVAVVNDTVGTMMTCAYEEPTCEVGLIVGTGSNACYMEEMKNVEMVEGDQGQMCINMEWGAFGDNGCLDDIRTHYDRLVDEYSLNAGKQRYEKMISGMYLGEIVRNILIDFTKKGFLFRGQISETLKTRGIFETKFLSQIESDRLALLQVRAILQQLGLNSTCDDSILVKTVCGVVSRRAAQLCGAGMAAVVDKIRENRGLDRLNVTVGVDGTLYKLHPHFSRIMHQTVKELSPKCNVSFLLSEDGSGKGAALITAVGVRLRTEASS
Description: (§2) Supplement 41467_2018_4343_MOESM4_ESM.xlsx, sheet "Exp3" | column: Abundance Ratio: (11) / (11 with PU-H71); Abundance Ratio: (11) / (DMSO); Abundances (Grouped): 11; Abundances (Grouped): 11 with PU-H71

[7] = biological target: T2, Phosphate carrier protein, mitochondrial (SLC25A3); remark: listed apart in the source
Description: as §2

Abundance Ratio: (11) / (11 with PU-H71) ([1]; sheet Exp2): 0.892
Abundance Ratio: (11) / (DMSO) ([1]; sheet Exp2): 8.305
Abundances (Grouped): 11 ([1]; sheet Exp2): 225.9
Abundances (Grouped): 11 with PU-H71 ([1]; sheet Exp2, with PU-H71): 253.2
Abundance Ratio: (11) / (11 with PU-H71) ([2]; sheet Exp2): 0.752
Abundance Ratio: (11) / (DMSO) ([2]; sheet Exp2): 2.578
Abundances (Grouped): 11 ([2]; sheet Exp2): 76.3
Abundances (Grouped): 11 with PU-H71 ([2]; sheet Exp2, with PU-H71): 101.4
Abundance Ratio: (11) / (11 with PU-H71) ([3]; sheet Exp2): 0.942
Abundance Ratio: (11) / (DMSO) ([3]; sheet Exp2): 2.044
Abundances (Grouped): 11 ([3]; sheet Exp2): 37.4
Abundances (Grouped): 11 with PU-H71 ([3]; sheet Exp2, with PU-H71): 39.7
Abundance Ratio: (11) / (11 with PU-H71) ([4]; sheet Exp2): 0.768
Abundance Ratio: (11) / (DMSO) ([4]; sheet Exp2): 2.545
Abundances (Grouped): 11 ([4]; sheet Exp2): 34.1
Abundances (Grouped): 11 with PU-H71 ([4]; sheet Exp2, with PU-H71): 44.4
Abundance Ratio: (11) / (11 with PU-H71) (protein MAL2 (MAL2); sheet Exp2): 0.886
Abundance Ratio: (11) / (DMSO) (protein MAL2 (MAL2); sheet Exp2): 3.449
Abundances (Grouped): 11 (protein MAL2 (MAL2); sheet Exp2): 114.5
Abundances (Grouped): 11 with PU-H71 (protein MAL2 (MAL2); sheet Exp2, with PU-H71): 129.3
Abundance Ratio: (11) / (11 with PU-H71) (Alpha-actinin-4 (ACTN4); sheet Exp2): 0.876
Abundance Ratio: (11) / (DMSO) (Alpha-actinin-4 (ACTN4); sheet Exp2): 1.667
Abundances (Grouped): 11 (Alpha-actinin-4 (ACTN4); sheet Exp2): 24
Abundances (Grouped): 11 with PU-H71 (Alpha-actinin-4 (ACTN4); sheet Exp2, with PU-H71): 27.4
Abundance Ratio: (11) / (11 with PU-H71) ([5]; sheet Exp2): 0.7
Abundance Ratio: (11) / (DMSO) ([5]; sheet Exp2): 2.264
Abundances (Grouped): 11 ([5]; sheet Exp2): 124.5
Abundances (Grouped): 11 with PU-H71 ([5]; sheet Exp2, with PU-H71): 177.9
Abundance Ratio: (11) / (11 with PU-H71) ([6]; Exp3): 1.072
Abundance Ratio: (11) / (DMSO) ([6]; Exp3): 2.893
Abundances (Grouped): 11 ([6]; Exp3): 29.8
Abundances (Grouped): 11 with PU-H71 ([6]; Exp3, with PU-H71): 27.8
Abundance Ratio: (11) / (11 with PU-H71) ([7]; Exp3): 0.732
Abundance Ratio: (11) / (DMSO) ([7]; Exp3): 2.193
Abundances (Grouped): 11 ([7]; Exp3): 121.3
Abundances (Grouped): 11 with PU-H71 ([7]; Exp3, with PU-H71): 165.7
SMILES: CC(=O)Oc1ccc2c(c1)Oc1cc(OC(C)=O)ccc1C21OC(=O)c2cc(C(=O)NCCOCCOCCNC(=O)CCCC(=O)N(CC#N)S(=O)(=O)c3ccc(C(=O)NCCCn4c(Sc5cc6c(cc5I)OCO6)nc5c(N)ncnc54)cc3)ccc21 [compound 11]
